The values that follow come from patent EP3578559B1, “DYE FOR FLUORESCENT STAINING OF STRATUM CORNEUM, MANNER OF ITS SYNTHESIS AND APPLICATION IN MICROSCOPY, INCLUDING IDENTIFICATION OF ROUTES OF SUBSTANCES PENETRATION TO THE SKIN AND ASSESSMENT OF STRUCTURAL DISORDERS OF THIS LAYER” (Gdanski Uniwersytet Medyczny, priority 2018, dated 2019).

The structures appear in SMILES notation. “Also recorded” adds a separate entry of the source. Read-outs that look alike come from different tables or passages of the source.

By logP is commonly meant a log measure of how a compound divides between an organic and an aqueous phase. A high value points to higher lipophilicity.

Series [1] in a line: Octanol/water partition coefficient (logP), experimentally assigned. The conditions noted are these: for octanol/water division ratio: ratio of concentrations of the dye in octanol/water.
For series [2], the system named is stratum corneum. Put plainly: Fluorescent microscopy staining of stratum corneum of human skin ex vivo. The protocol: To obtain microscopic images of stratum corneum in a fluorescent microscope (Nikon Eclipse 50, Japan; the mercury lamp; the filter for wavelength: 330-380 nm; software for data acquisition NIS Elements AR 3.2.) Standard methodology was applied. A fragment of human skin ex vivo (1 cm x 1 cm) was subject to heat separation procedure (temperature 60 °C; 30 seconds) in order to separate epidermis (including stratum corneum) from the dermis. Fragments of the epidermis were placed on a microscopic glass, fluorescent dyes were applied and then incubated in thermostat for 10 minutes at 37 °C. After this time, the excess of dyes was removed by the use of laboratory absorption blotting paper and images of microscopic magnification were recorded in 10 x magnification of the lens, using the exposure time of 15-600 ms.

Series [3] is described as follows: physchem.
Series [4] can be described thus: Fluorescence optical properties of the dye (Stokes shift, absorption/emission). Format: physicochemical.
The conditions of series [5]: commercial dye; cited from earlier work.
The mark [6] stands for this setting: post application of water / hydrophilic compounds, 10x.

`CC[N+]1(CC)CN2C(=N1)C(C(=O)[O-])=Cc1ccccc12` [P4]: in series [1], the octanol/water division ratio is given as 0,01. The “characterization of hydrophilicity/lipophilicity with regard to diffusion to stratum corneum” value in series [2] (on the basis of the conducted research) is “too hydrophilic”. Besides, the “staining of the lipids inside the lipid matrix or corneocytes proteins” value in series [2] (stratum corneum structures) is “lack of staining”. In series [3], this compound gave a logP of -1.9.
Consider `CCCCCCOC(=O)c1ccccc1-c1c2ccc(=[N+](CC)CC)cc-2oc2cc(N(CC)CC)ccc12` [RBHE, Rhodamine hexylester], for which, in series [2] (after application of siloxane with a cyclic structure, compared with SAFQ8MeAKT, 10x), the “microscope image quality of stained structures” value is recorded as “not as explicit”. Moreover, the staining of canyons entry in series [2] (lipophilic compounds (siloxane D4), 10x) is “does not stain canyons so vividly”; in series [2] (setting [6]), “canyons are not visible; also recorded: does not dye canyons”.
Consider `CC[N+]1(CC)CN2C(=N1)C(C(=O)ON1C(=O)CCC1=O)=Cc1ccc(C)cc12.[Cl-]` [SAFQ8MeAKT, 4-((2,5-dioxopyrrolidin-1-yloxy)carbonyl)-2,2-diethyl-8-methyl-1,2-dihydro-[1,2,4]triazolo[4,3-a]quinolin-2-ium chloride], for which, in series [4], the Stokes shift amounted to 95 nm, the characteristic absorption was found to be 365 nm and the characteristic emission stood at 460 nm. Moreover, in series [1], the octanol/water division ratio is 0,37. The “greater lipophilicity than P4 dye” value in series [1] (relative to P4 dye) is on record as “approx. 40 times”. Moreover, in series [2] (10x), the staining of corneocytes entry is listed as “staining of the inside of corneocytes”. Also, in series [2] (setting [6]), the staining of canyons entry is listed as “canyons are stained”. Further, the logP in series [3] is -0.43.
Turning to `CCN(CC)c1ccc2c(-c3ccc(S(=O)(=O)O)cc3S(=O)(=O)[O-])c3ccc(=[N+](CC)CC)cc-3oc2c1` [SRB, Sulforhodamines B], the staining of corneocytes result in series [2] (10x) is “noticeably stains corneocytes”. Further, the staining of canyons entry in series [2] (dye alone (Fig. 11), 10x) is reported as “does not dye the canyons”. Also, in series [5], the characteristic absorption is recorded as 565 nm and the characteristic emission is 590 nm.
